Measurements published in US7067486B2, “Acetylcholinesterase-derived peptides and uses thereof” (priority 1999, dated 2006).

Experiments:
[1] = tested on: CD34^+ cells; experiment: Viable cell expansion in CD34+ liquid cultures (trypan blue exclusion); format: cell-based, human
Description: Cell Source: UCB was collected, following informed consent of the parents and with the approval of the Sourasky Medical Center Ethics Committee, as previously described [Grisaru et al. (1999a) Am. J. Obstet. Gynecol, 180, 1240–1243]. Following 1:1 (v/v) dilution in Iscove's modified Dulbecco medium (IMDM, Beit Haemek, Israel), mononuclear cells were separated using 3% gelatin (Difco, Detroit, Mich.) and Ficoll-Hypaque gradients (<1.077 g/ml; Pharmacia, Uppsala, Sweden) [Pick et al. (1998) Br. J. Haematol. 103, 639–50]. CD34^+ cells were enriched using CD34 immunoglobulin-coated magnetic beads (CD34 progenitor cell selection system, Dynal, Norway).CD34^+ cells analysis was performed by flow cytometry (Becton Dickinson Immunocytochemistry System Inc., San Jose, Calif.), using CD34-PE (Becton Dickinson Immunocytometry System, Inc.) and CD45-FITC (Dako, Glostrup, Denmark) monoclonal antibodies. […] Liquid Cultures: UCB CD34^+ cells were set for liquid cultures at a concentration of 10^5/mL in IMDM, containing 10% autologous plasma, 2 mM L-glutamine (Sigma Chemical Co., St Louis, Mo.), penicillin ([…]), streptomycin ([…]), amphotericin B (2×10^−5 M) (Sigma Chemical Co.), and heparin (20 IU/mL, Gibco, Grand Island, N.Y.), all in a fully humidified atmosphere at 37° C. and 5% CO2. The following elements were added where noted: • 1. Hematopoietic growth factors: Interleukin 3 (IL3, 5 ng/mL, Immunex, Seattle, Wash.), interleukin 6 (IL6, 50 ng/mL, R&D Systems, Minneapolis, Minn.), TPO (1 ng/mL, R&D Systems), stem cell factor (SCF, 10 ng/mL, R&D Systems), FLT-3 ligand (FLT3, 50 ng/mL, R&D Systems), granulocyte-macrophage colony stimulating factor (GM-CSF, 50 ng/mL, Biogenesis Ltd, Bournemouth, UK) and combinations of the above, for 24 hr to 28 days (supplemented every 4 days). • 2. Endothlial Growth factors: Epidermal growth factor (EGF 10 ng/ml, Sigma Chemical Co.), basic Fibroblast growth factor (bFGF 20 ng/ml, Sigma Chemical Co.) incubated in a serum free medium (SFM) for 48 hr. • 3. […] AChE C-terminal peptides: The following C-terminal peptides of the AChE synaptic (ASP, also denoted SEQ ID: No. 2) and readthrough (ARP, also denoted SEQ ID: No. 1) isoforms were synthesized using a 433A peptide synthesizer (PE Applied Biosystems, Inc., Norwalk, Conn.). • ASP: 1-[…]-40, also denoted as SEQ ID: No. 2. • ARP: 1-[…]-26, also denoted as SEQ ID: No. 1. […]

[2] = tested on: CD34^+ cells; experiment: BrdU incorporation into CD34+ cells (cell proliferation); format: cell-based, human; details: peptide 2 nM, cord blood CD34+ cells
Description: Cell Source: UCB was collected, following informed consent of the parents and with the approval of the Sourasky Medical Center Ethics Committee, as previously described [Grisaru et al. (1999a) Am. J. Obstet. Gynecol, 180, 1240–1243]. Following 1:1 (v/v) dilution in Iscove's modified Dulbecco medium (IMDM, Beit Haemek, Israel), mononuclear cells were separated using 3% gelatin (Difco, Detroit, Mich.) and Ficoll-Hypaque gradients (<1.077 g/ml; Pharmacia, Uppsala, Sweden) [Pick et al. (1998) Br. J. Haematol. 103, 639–50]. CD34^+ cells were enriched using CD34 immunoglobulin-coated magnetic beads (CD34 progenitor cell selection system, Dynal, Norway).CD34^+ cells analysis was performed by flow cytometry (Becton Dickinson Immunocytochemistry System Inc., San Jose, Calif.), using CD34-PE (Becton Dickinson Immunocytometry System, Inc.) and CD45-FITC (Dako, Glostrup, Denmark) monoclonal antibodies. […] Liquid Cultures: UCB CD34^+ cells were set for liquid cultures at a concentration of 10^5/mL in IMDM, containing 10% autologous plasma, 2 mM L-glutamine (Sigma Chemical Co., St Louis, Mo.), penicillin ([…]), streptomycin ([…]), amphotericin B (2×10^−5 M) (Sigma Chemical Co.), and heparin (20 IU/mL, Gibco, Grand Island, N.Y.), all in a fully humidified atmosphere at 37° C. and 5% CO2. The following elements were added where noted: • 1. Hematopoietic growth factors: Interleukin 3 (IL3, 5 ng/mL, Immunex, Seattle, Wash.), interleukin 6 (IL6, 50 ng/mL, R&D Systems, Minneapolis, Minn.), TPO (1 ng/mL, R&D Systems), stem cell factor (SCF, 10 ng/mL, R&D Systems), FLT-3 ligand (FLT3, 50 ng/mL, R&D Systems), granulocyte-macrophage colony stimulating factor (GM-CSF, 50 ng/mL, Biogenesis Ltd, Bournemouth, UK) and combinations of the above, for 24 hr to 28 days (supplemented every 4 days). • 2. […] AChE C-terminal peptides: The following C-terminal peptides of the AChE synaptic (ASP, also denoted SEQ ID: No. 2) and readthrough (ARP, also denoted SEQ ID: No. 1) isoforms were synthesized using a 433A peptide synthesizer (PE Applied Biosystems, Inc., Norwalk, Conn.). • ASP: 1-[…]-40, also denoted as SEQ ID: No. 2. • ARP: 1-[…]-26, also denoted as SEQ ID: No. 1.
[…] Twenty-eight day liquid cultures were sampled every 6–8 days for viable cell counting (using trypan blue dye exclusion), cell phenotyping (CD34^+, CD33^+ and CD41^+ quantification using flow cytometry, with CD34-PE, CD33-FITC (Immunotech/Coulter, Hialeah, Fla.), CD41-FITC (Immunoquality Products, Groningen, Netherlands) and CD45-FITC monoclonal antibodies), and growth of progenitor colony (granulocyte-macrophage and megakaryocytic), using previously described techniques (Pick et al. (1998) id ibid.). […]

ASP (DTLDEAERQWKAEFHRWSSYMVHWKNQFDHYSKQDRCSDL)
Total viable cells ([1]; day 14, seeded at 50,000 cells/well, ARP 2 nM, cortisol 1.2 μM, ASP 2 nM, SCF 50 ng/ml, AS1 20 pM, PBAN 2 nM): 100.0 cells per culture × 10^−3
promotion of cell expansion compared with ARP ([1]; similar doses, alone or with cytokines, 2 weeks): less effective than ARP
BrdU incorporation values ([2]; 16 hrs post-plating): 0.095 ± 0.004
BrdU incorporation values ([2]; 24 hrs post-plating): 0.182 ± 0.018
BrdU incorporation values ([2]; 36 hrs post-plating): 0.260 ± 0.022
